Measured values taken from patent US8450525B2, “Histone deacetylase inhibitors” (Orchid Chemicals & Pharmaceuticals Limited, priority 2007, dated 2013).
One block for each compound: values may come before it.

Legend:
[1] = test system: T1, HDAC (Mouse Liver Extract); test: HDAC inhibition assay using Boc-Lys(Ac)-AMC substrate, mouse liver enzyme; assay type: biochemical;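 on IC50: IC50 for inhibition of HDAC activity in mouse liver extract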
T1 construct: Mouse liver enzyme (10 mg/ml) was diluted 1:6 with HDAC buffer
Experimental: Histone Deacetylase (HDAC) Inhibition Assay using Boc-Lys (Ac)-AMC Substrate: Inhibition of HDAC has been implicated to modulate transcription and to induce apoptosis or differentiation in cancer cells. The fluorometric assay provides a fast and fluorescence based method that eliminates radioactivity, extractions or chromatography, as used in traditional assays. The assay is based on two steps. First, the HDAC fluorometric substrate, which comprises an acetylated lysine side chain, is incubated with a sample containing HDAC activity (Mouse Liver Extract). Deacetylation of the substrate sensitizes the substrate, in the second step; treatment with the Trypsin stop solution produces a fluorophore that can be easily analyzed using fluorescence plate reader.
Assay was done in 96-well black microplate and total volume of the assay was 100 μL. Mouse liver enzyme (10 mg/ml) was diluted 1:6 with HDAC buffer. Enzyme cocktail was made of 10 μL of diluted enzyme and 30 μL of HDAC buffer. 40 μl of enzyme cocktail followed by 10 μL of test compound (1 μM and 10 μM) or buffer (control) was added to each well. The plate was pre-incubated at 37° C. for 5 minutes. The HDAC reaction was started by adding 50 μl of HDAC substrate Boc-Lys (Ac)-AMC (Bachem AG, Switzerland). The plate was incubated at 37° C. for 30 minutes. […] Measuring the fluorescence at excitation wavelength of 360 nm and emission wavelength of 460 nm monitored the release of AMC. Buffer alone and substrate alone served as blank.

[2] = test system: HCT 116 (colon) cells; test: Anti-cancer screen, growth inhibition (MTT); assay type: cell-based; conditions: Homo sapiens, HCT-116 cells, 48 hours of incubation
Experimental: (§1) Experimental drugs were screened for anti-cancer activity in three cell fines using five concentrations for each compound.
(§2) Following 24-hour incubation, test compounds were added to the 96 well plates. Each plate contains one of the above cell lines and the following samples in triplicate: five different dilutions (0.01, 0.1, 1, 10 and 100 μM) of four test compounds, appropriate dilutions of a cytotoxic standard and growth medium (untreated) wells. […] SAHA was used as standard drug in these experiments.
(§3) For T0 measurement, 24 hours after seeding the cells, 20 μL of 3-(4.5-dimethyl-2-thiazolyl)-2,5-diphenyl-2H-tetrazolium (MTT) solution per well was added to the ‘T0’ plate and incubated for 3 hours at 37° C. in a CO2 incubator. The plate containing cells and test compounds was treated similarly after 48 hours of incubation. After 3 hours of MTT addition, well contents were aspirated carefully followed by addition of 150 μL DMSO per well. Plates were agitated to ensure dissolution of the formazan crystals in DMSO and absorbance was read at 570 nm (A570).

[3] = test system: NCI-H460 (lung) cells; test: Anti-cancer screen, growth inhibition (MTT); assay type: cell-based; conditions: Homo sapiens, 48 hours of incubation
Experimental: as §1, §2, §3

[4] = test system: U251 (glioma) cells; test: Anti-cancer screen, growth inhibition (MTT); assay type: cell-based; conditions: Homo sapiens, U-251 cells, 48 hours of incubation
Experimental: as §1, §2, §3

SMILES: O=C(/C=C/c1ccc(/C=C(/C(=O)N2CCOCC2)c2ccccc2F)cc1)NCc1ccc(C(=O)NO)cc1 [Example 98, 4-(((1E)-3-(4-(3-(Morpholino)-2-(2-fluorophenyl)-3-oxoprop-1-en-1-yl)phenyl)acrylamido)methyl)-N-hydroxybenzamide]
HDAC Inhibition % (1 μM) [1]: 91.5%
HDAC Inhibition % (10 μM) [1]: 98.8%
GI50 [2]: 9 µM
GI50 [3]: > 100 µM
GI50 [4]: 18 µM

SMILES: COc1ccc(/C(=C\c2ccc(/C=C/C(=O)NO)cc2)C(=O)NC(C)C)cc1F [Example 26, N-Isopropyl-2-(3-fluoro-4-methoxyphenyl)-3-(4-((1E)-3-(hydroxyamino)-3-oxoprop-1-en-1-yl)phenyl)acrylamide]
IC50 [1]: 43 nM
HDAC Inhibition % (1 μM) [1]: 88.2%
HDAC Inhibition % (10 μM) [1]: 99.1%
GI50 [2]: 2.1 µM
GI50 [3]: 7.5 µM
GI50 [4]: 3.5 µM

SMILES: CN(C)C(=O)/C(=C/c1ccc(/C=C/C(=O)NCCCCCC(=O)NO)cc1)c1ccc(F)cc1 [Example 76, 6-((1E)-3-(4-(3-(N,N-Dimethylamino)-2-(4-fluorophenyl)-3-oxoprop-1-en-1-yl)phenyl)acrylamido)-N-hydroxyhexanamide]
GI50 [2]: 10 µM
GI50 [3]: 20 µM

SMILES: CC(C)NC(=O)/C(=C/c1ccc(/C=C/C(=O)NO)cc1)c1cccc(F)c1 [Example 22, N-Isopropyl-2-(3-fluorophenyl)-3-(4-((1E)-3-(hydroxyamino)-3-oxoprop-1-en-1-yl)phenyl)acrylamide]
IC50 [1]: 90 nM
HDAC Inhibition % (1 μM) [1]: 85.5%
HDAC Inhibition % (10 μM) [1]: 97.9%
GI50 [2]: 2.6 µM
GI50 [3]: 6 µM
GI50 [4]: 10.5 µM

SMILES: Nc1ccccc1NC(=O)/C=C/c1ccc(/C=C(/C(=O)NC2CC2)c2ccc(C(F)(F)F)cc2)cc1 [Example 61, N-Cyclopropyl-3-(4-((1E)-3-(2-aminophenylamino)-3-oxoprop-1-en-1-yl}phenyl)-2-(4-(trifluoromethyl)phenyl)acrylamide]
HDAC Inhibition % (1 μM) [1]: 12.3%
HDAC Inhibition % (10 μM) [1]: 14.6%
GI50 [2]: 68 µM
GI50 [3]: > 100 µM

SMILES: CNC(=O)/C(=C/c1ccc(/C=C/C(=O)NO)cc1)c1ccc(F)cc1 [Example 2, N-Methyl-2-(4-fluorophenyl)-3-(4-((1E)-3-(hydroxyamino)-3-oxoprop-1-en-1-yl)phenyl)acrylamide]
GI50 [2]: 7.8 µM
GI50 [3]: 28 µM
GI50 [4]: 4.5 µM

SMILES: Nc1ccccc1NC(=O)/C=C/c1ccc(/C=C(/C(=O)NC2CC2)c2cccnc2)cc1 [Example 62, N-Cyclopropyl-3-(4-((1E)-3-(2-aminophenylamino)-3-oxoprop-1-en-1-yl}phenyl)-2-(pyridin-3-yl)acrylamide]
HDAC Inhibition % (1 μM) [1]: 27.1%
HDAC Inhibition % (10 μM) [1]: 58.0%
GI50 [2]: 64 µM
GI50 [3]: > 100 µM

SMILES: Nc1ccccc1NC(=O)/C=C/c1ccc(/C=C(/C(=O)N2CCOCC2)c2ccc(F)cc2)cc1 [Example 68, N-Morpholino-3-(4-((1E)-3-(2-aminophenylamino)-3-oxoprop-1-en-1-yl}phenyl)-2-(4-fluorophenyl)acrylamide]
HDAC Inhibition % (1 μM) [1]: 19.1%
HDAC Inhibition % (10 μM) [1]: 21.1%
GI50 [3]: 80 µM

SMILES: COc1ccc(/C(=C\c2ccc(C(=O)NO)cc2)C(=O)NC2CC2)cc1 [Example 100, 4-(3-(Cyclopropylamino)-2-(4-methoxyphenyl)-3-oxoprop-1-en-1-yl)-N-hydroxy benzamide]
HDAC Inhibition % (1 μM) [1]: 39.8%
HDAC Inhibition % (10 μM) [1]: 76.2%
GI50 [2]: 58 µM
GI50 [3]: 67 µM

SMILES: CN(C)C(=O)/C(=C/c1ccc(/C=C/C(=O)NO)cc1)c1ccc(F)cc1 [Example 3, N,N-Dimethyl-2-(4-fluorophenyl)-3-(4-((1E)-3-(hydroxyamino)-3-oxoprop-1-en-1-yl)phenyl)acrylamide]
GI50 [2]: 8.5 µM
GI50 [3]: 48 µM
GI50 [4]: 21.8 µM

SMILES: O=C(/C=C/c1ccc(/C(=C\c2ccc(OCC3CC3)cc2)C(=O)NC2CC2)cc1)NO [Example 49, N-Cyclopropyl-3-(4-cyclopropylmethoxyphenyl)-2-(4-((1E)-3-(hydroxyamino)-3-oxoprop-1-en-1-yl)phenyl)acrylamide]
GI50 [2]: 1 µM
GI50 [3]: 30 µM
GI50 [4]: 19 µM

SMILES: Nc1ccccc1NC(=O)/C=C/c1ccc(/C=C(/C(=O)NC2CC2)c2ccc(F)cc2)cc1 [Example 59]
HDAC Inhibition % (1 μM) [1]: 11.5%
HDAC Inhibition % (10 μM) [1]: 49.9%
GI50 [2]: 20 µM
GI50 [3]: 59.2 µM

SMILES: COc1cccc(/C(=C\c2ccc(C(=O)NO)cc2)C(=O)NC2CC2)c1 [Example 101, 4-(3-(Cyclopropylamino)-2-(3-methoxyphenyl)-3-oxoprop-1-en-1-yl)-N-hydroxy benzamide]
HDAC Inhibition % (1 μM) [1]: 44.6%
HDAC Inhibition % (10 μM) [1]: 84.9%
GI50 [2]: 44 µM
GI50 [3]: 60 µM

The remaining lines, values ahead:

HDAC Inhibition % (1 μM) [1]: 34.7%
HDAC Inhibition % (10 μM) [1]: 56.0%
GI50 [2]: 5.8 µM
GI50 [3]: 9 µM
GI50 [4]: 16 µM
SMILES: Nc1ccccc1NC(=O)c1ccc(/C=C(/C(=O)NC2CC2)c2cc(F)ccc2F)cc1 [Example 130, N-(2-Aminophenyl)-4-(2-(2,5-difluorophenyl)-3-(cyclopropylamino)-3-oxoprop-1-en-1-yl)benzamide]

HDAC Inhibition % (1 μM) [1]: 86.1%
HDAC Inhibition % (10 μM) [1]: 95.7%
GI50 [2]: 19 µM
GI50 [3]: 46 µM
GI50 [4]: 2 µM
SMILES: Cc1ccc(/C(=C\c2ccc(C(=O)NCCCCCC(=O)NO)cc2)C(=O)NC2CC2)cc1 [Example 162, 4-(3-(Cyclopropylamino)-2-(4-methylphenyl)-3-oxoprop-1-en-1-yl)-N-(6-(hydroxyamino)-6-oxohexyl)benzamide]

HDAC Inhibition % (1 μM) [1]: 30.0%
HDAC Inhibition % (10 μM) [1]: 54.6%
GI50 [2]: 3.5 µM
GI50 [3]: 12 µM
GI50 [4]: 22 µM
SMILES: Nc1ccccc1NC(=O)c1ccc(/C=C(/C(=O)NC2CC2)c2c(F)cccc2F)cc1 [Example 129, N-(2-Aminophenyl)-4-(2-(2,6-difluorophenyl)-3-(cyclopropylamino)-3-oxoprop-1-en-1-yl)benzamide]

HDAC Inhibition % (1 μM) [1]: 50.1%
HDAC Inhibition % (10 μM) [1]: 80.4%
GI50 [2]: 17 µM
GI50 [3]: 48 µM
GI50 [4]: 19 µM
SMILES: O=C(NC1CC1)/C(=C/c1ccc(C(=O)NO)cc1)c1ccccc1 [Example 102, 4-(3-(Cyclopropylamino)-2-phenyl-3-oxoprop-1-en-1-yl)-N-hydroxybenzamide]

GI50 [2]: 29 µM
GI50 [3]: 68 µM
GI50 [4]: 20 µM
SMILES: O=C(NC1CC1)/C(=C/c1ccc(C(=O)NO)cc1)c1ccccc1F [Example 103, 4-(3-(Cyclopropylamino)-2-(2-fluorophenyl)-3-oxoprop-1-en-1-yl)-N-hydroxy benzamide]

GI50 [2]: 31 µM
GI50 [3]: 45 µM
GI50 [4]: 21 µM
SMILES: O=C(NC1CC1)/C(=C/c1ccc(C(=O)NCc2ccc(C(=O)NO)cc2)cc1)c1ccccc1F [Example 150, 4-(3-(Cyclopropylamino)-2-(2-fluorophenyl)-3-oxoprop-1-en-1-yl)-N-(4-(hydroxycarbamoyl)benzyl)benzamide]

GI50 [2]: 3 µM
GI50 [3]: 1.3 µM
GI50 [4]: 0.8 µM
SMILES: O=C(/C=C/c1ccc(CNC(=O)c2ccc(/C=C(/C(=O)NC3CC3)c3ccccc3)cc2)cc1)NO [Example 146, 4-(3-(Cyclopropylamino)-2-phenyl-3-oxoprop-1-en-1-yl)-N-(4-((E)-3-(hydroxyamino)-3-oxoprop-1-en-1-yl)benzyl)benzamide]

GI50 [2]: 20 µM
GI50 [3]: 0.3 µM
GI50 [4]: 0.1 µM
SMILES: O=C(CCCCCNC(=O)c1ccc(/C=C(/C(=O)NC2CC2)c2ccc(F)cc2)cc1)NO [Example 160, 4-(3-(Cyclopropylamino)-2-(4-fluorophenyl)-3-oxoprop-1-en-1-yl)-N-(6-(hydroxyamino)-6-oxohexyl)benzamide]

GI50 [2]: 10 µM
GI50 [3]: 40 µM
GI50 [4]: 12 µM
SMILES: O=C(NC1CC1)/C(=C/c1ccc(C(=O)NCc2ccc(C(=O)NO)cc2)cc1)c1ccccc1Cl [Example 151, 4-(3-(Cyclopropylamino)-2-(2-chlorophenyl)-3-oxoprop-1-en-1-yl)-N-(4-(hydroxycarbamoyl)benzyl)benzamide]

GI50 [2]: 1.6 µM
GI50 [3]: 0.5 µM
GI50 [4]: 0.08 µM
SMILES: O=C(/C=C/c1ccc(CNC(=O)c2ccc(/C=C(/C(=O)NC3CC3)c3ccc(F)cc3)cc2)cc1)NO [Example 145, 4-(3-(Cyclopropylamino)-2-(4-fluorophenyl)-3-oxoprop-1-en-1-yl)-N-(4-((E)-3-(hydroxyamino)-3-oxoprop-1-en-1-yl)benzyl)benzamide]
